This experiment concerns c-myc (DNA, G4) TGAGGGTGGGTAGGGTGGGTAA
As to the kind of experiment: fluorescence light-up, plate reader. The note with it: 50 mM K+ (KCl); 50 mM Tris/HCl pH 7.5, room temperature; 1 µM strand, 0.5 µM ThT.

The values that follow come from article PMC4005661 (2014).

The compound `Cc1ccc2c(c1)sc(-c1ccc(N(C)C)cc1)[n+]2C` came in with a fluorescence fold increase of 14 fold.
